Measured values from ChEMBL document CHEMBL1275550, “In vitro activity of doripenem, a carbapenem for the treatment of challenging infections caused by gram-negative bacteria, against recent clinical isolates from the United States” (2008).

Legend:
Type in all cases: functional
Serratia marcescens [1] = experiment: Antimicrobial activity against Ceftazidime non-susceptible Serratia marcescens assessed as resistant isolate by broth microdilution method
Acinetobacter [2] = experiment: Antimicrobial activity against imipenem susceptible Acinetobacter by broth microdilution method in presence of Tazobactam
Escherichia coli = experiment: Antimicrobial activity against Non-ESBL Escherichia coli assessed as intermediate isolate by broth microdilution method in presence of Tazobactam
Proteus mirabilis = experiment: Antimicrobial activity against ESBL producing Proteus mirabilis assessed as intermediate isolate by broth microdilution method in presence of Tazobactam
Pseudomonas aeruginosa [3] = experiment: Antimicrobial activity against ceftazidime susceptible Pseudomonas aeruginosa assessed as resistant isolate by broth microdilution method in presence of Tazobactam
Citrobacter = experiment: Antimicrobial activity against Citrobacter with nonderepressed AmpC beta-lactamsae assessed as intermediate isolate by broth microdilution method in presence of Tazobactam
Acinetobacter [4] = experiment: Antimicrobial activity against imipenem susceptible Acinetobacter assessed as intermediate isolate by broth microdilution method in presence of Tazobactam
Pseudomonas aeruginosa [5] = experiment: Antimicrobial activity against imipenem non-susceptible Pseudomonas aeruginosa assessed as susceptible isolate by broth microdilution method in presence of Tazobactam
Pseudomonas aeruginosa [6] = experiment: Antimicrobial activity against Pseudomonas aeruginosa isolated from non-ICU patient assessed as intermediate isolate by broth microdilution method in presence of Tazobactam
Serratia marcescens [7] = experiment: Antimicrobial activity against Ceftazidime susceptible Serratia marcescens assessed as resistant isolate by broth microdilution method in presence of tazobactam
Klebsiella pneumoniae = experiment: Antimicrobial activity against Non-ESBL Klebsiella pneumoniae assessed as intermediate isolate by broth microdilution method in presence of Tazobactam
Pseudomonas aeruginosa [8] = experiment: Antimicrobial activity against Pseudomonas aeruginosa isolated from ICU patient assessed as intermediate isolate by broth microdilution method in presence of Tazobactam
Enterobacteriaceae = experiment: Antimicrobial activity against Ceftazidime non-susceptible Enterobacteriaceae assessed as intermediate isolate by broth microdilution method in presence of tazobactam

SMILES: CC(C)(O/N=C(\C(=O)N[C@@H]1C(=O)N2C(C(=O)[O-])=C(C[n+]3ccccc3)CS[C@H]12)c1csc(N)n1)C(=O)O [CEFTAZIDIME]
- Activity (Serratia marcescens [1]): 100%

SMILES: CCN1CCN(C(=O)N[C@@H](C(=O)N[C@@H]2C(=O)N3[C@@H]2SC(C)(C)[C@@H]3C(=O)O)c2ccccc2)C(=O)C1=O [PIPERACILLIN]
- MIC50 (Acinetobacter [2]): 16 µg/mL
- MIC90 (Acinetobacter [2]): > 128 µg/mL
- Activity (Escherichia coli): 3.2%
- Activity (Proteus mirabilis): 0%
- Activity (Pseudomonas aeruginosa [3]): 3.7%
- Activity (Citrobacter): 3.7%
- Activity (Acinetobacter [4]): 18.1%
- Activity (Pseudomonas aeruginosa [5]): 72.9%
- Activity (Pseudomonas aeruginosa [6]): 0%
- Activity (Serratia marcescens [7]): 1.9%
- Activity (Klebsiella pneumoniae): 2.4%
- Activity (Pseudomonas aeruginosa [8]): 0%
- Activity (Enterobacteriaceae): 20.6%
